Reference: ChEMBL document CHEMBL4339253, “Anthraquinone-Based Specialized Metabolites from Rhizomes of Bulbine natalensis” (J Nat Prod, 2019)
Active and inactive are the calls of the source. No cut-off for these calls is given here.

How the values were obtained:
Type in all cases: functional, organism-based
[1] = tested on: Candida albicans; assay: Antimicrobial activity against Candida albicans ATCC 90028 assessed as inhibition of microbial growth up to 20 ug/mL by CLSI based method
[2] = tested on: Aspergillus fumigatus; assay: Antimicrobial activity against Aspergillus fumigatus ATCC 90906 assessed as inhibition of microbial growth up to 20 ug/mL by CLSI based method
[3] = tested on: Cryptococcus neoformans; assay: Antimicrobial activity against Cryptococcus neoformans ATCC 90113 assessed as inhibition of microbial growth up to 20 ug/mL by CLSI based method
[4] = tested on: Pseudomonas aeruginosa; assay: Antimicrobial activity against Pseudomonas aeruginosa ATCC 27853 assessed as inhibition of microbial growth up to 20 ug/mL by CLSI based method
[5] = tested on: Staphylococcus aureus; assay: Antimicrobial activity against methicillin-resistant Staphylococcus aureus ATCC 43300 assessed as inhibition of microbial growth up to 20 ug/mL by CLSI based method
[6] = tested on: Escherichia coli; assay: Antimicrobial activity against Escherichia coli ATCC 35218 assessed as inhibition of microbial growth up to 20 ug/mL by CLSI based method
[7] = tested on: Mycobacterium intracellulare; assay: Antimicrobial activity against Mycobacterium intracellulare assessed as inhibition of microbial growth up to 20 ug/mL
[8] = tested on: Cryptococcus neoformans; assay: Antimicrobial activity against Cryptococcus neoformans ATCC 90113 assessed as inhibition of microbial growth by CLSI based method
[9] = tested on: Pseudomonas aeruginosa; assay: Antimicrobial activity against Pseudomonas aeruginosa ATCC 27853 assessed as inhibition of microbial growth by CLSI based method
[10] = tested on: Staphylococcus aureus; assay: Antimicrobial activity against methicillin-resistant Staphylococcus aureus ATCC 43300 assessed as inhibition of microbial growth by CLSI based method
[11] = tested on: Candida albicans; assay: Antimicrobial activity against Candida albicans ATCC 90028 assessed as inhibition of microbial growth by CLSI based method
[12] = tested on: Aspergillus fumigatus; assay: Antimicrobial activity against Aspergillus fumigatus ATCC 90906 assessed as inhibition of microbial growth by CLSI based method
[13] = tested on: Escherichia coli; assay: Antimicrobial activity against Escherichia coli ATCC 35218 assessed as inhibition of microbial growth by CLSI based method

How did the “growth inhibition (GI)” value [1] turn out when COc1cccc2cc3c(c(O)c12)[C@@H](C)OC3 was run?
The value was “inactive”.

And the “growth inhibition (GI)” value [2]?
Its value is “inactive”.

What about the “growth inhibition (GI)” value [3] of the same compound?
Its value is “inactive”.

What about the “growth inhibition (GI)” value [4] of the same compound?
Its value is “inactive”.

And the “growth inhibition (GI)” value [5]?
The value was “inactive”.

And the “growth inhibition (GI)” value [6]?
Its value is “inactive”.

What about the “growth inhibition (GI)” value [7] of the same compound?
The value was “inactive”.

CO/N=C(\C(=O)N[C@@H]1C(=O)N2C(C(=O)O)=C(COC(C)=O)CS[C@H]12)c1csc(N)n1 [CEFOTAXIME] was tested. Which IC50 [8] did it give?
Its IC50 is over 200 µM.

And the IC50 [9]?
The IC50 was 0.03 µM.

And the IC50 [10]?
Its IC50 is 30 µM.

What about the IC50 [11] of the same compound?
Its IC50 is over 200 µM.

What about the IC50 [12] of the same compound?
Its IC50 is over 200 µM.

What about the IC50 [13] of the same compound?
The IC50 was 0.1 µM.

For COc1cc(OC)c(C2=C(C)C=C(O)C3C(=O)c4c(O)cccc4C(=O)C23)c(O)c1C(C)=O (centres undefined), which “growth inhibition (GI)” value [1] is on record?
The value was “inactive”.

And the “growth inhibition (GI)” value [2]?
Its value is “inactive”.

What about the “growth inhibition (GI)” value [3] of the same compound?
Its value is “inactive”.

And the “growth inhibition (GI)” value [4]?
Its value is “inactive”.

What about the “growth inhibition (GI)” value [5] of the same compound?
Its value is “inactive”.

And the “growth inhibition (GI)” value [6]?
The value was “inactive”.

What about the “growth inhibition (GI)” value [7] of the same compound?
Its value is “inactive”.

What does the source list for COc1cccc(OC)c1C(=O)N[C@@H]1C(=O)N2[C@@H]1SC(C)(C)[C@@H]2C(=O)O [METHICILLIN]?
IC50 [8]: > 300 µM; IC50 [9]: 0.3 µM; IC50 [10]: 30 µM; IC50 [11]: > 300 µM; IC50 [12]: > 300 µM

With COc1cc(OC)c(C2=C(C)C=C(O)C3C(=O)c4c(O[C@@H]5O[C@H](CO[C@@H]6O[C@H](CO)[C@@H](O)[C@H](O)[C@H]6O)[C@@H](O)[C@H](O)[C@H]5O)cccc4C(=O)C23)c(O)c1C(C)=O (some centres undefined) as the compound, how does the “growth inhibition (GI)” value [1] read?
Its value is “inactive”.

What about the “growth inhibition (GI)” value [2] of the same compound?
The value was “inactive”.

What about the “growth inhibition (GI)” value [3] of the same compound?
The value was “inactive”.

What about the “growth inhibition (GI)” value [4] of the same compound?
Its value is “inactive”.

And the “growth inhibition (GI)” value [5]?
Its value is “inactive”.

And the “growth inhibition (GI)” value [6]?
Its value is “inactive”.

And the “growth inhibition (GI)” value [7]?
Its value is “inactive”.

How did the “growth inhibition (GI)” value [1] turn out when Cc1cc(O)c2c(c1)C(O)([C@@H]1O[C@@H](C)[C@H](O)[C@@H](O)[C@H]1O)c1ccc([C@H]3c4cccc(O)c4C(=O)c4c(O)cc(C)c(O[C@@H]5OC[C@@H](O)[C@H](O)[C@H]5O)c43)c(O)c1C2=O (some centres undefined) was run?
The value was “inactive”.

What about the “growth inhibition (GI)” value [2] of the same compound?
The value was “inactive”.

What about the “growth inhibition (GI)” value [3] of the same compound?
The value was “inactive”.

And the “growth inhibition (GI)” value [4]?
Its value is “inactive”.

What about the “growth inhibition (GI)” value [5] of the same compound?
The value was “inactive”.

And the “growth inhibition (GI)” value [6]?
The value was “inactive”.

And the “growth inhibition (GI)” value [7]?
Its value is “inactive”.

OC(Cn1cncn1)(Cn1cncn1)c1ccc(F)cc1F [FLUCONAZOLE] was tested. Which IC50 [8] did it give?
Its IC50 is 5 µM.

And the IC50 [9]?
The IC50 was over 0.3 µM.

And the IC50 [10]?
The IC50 was over 300 µM.

What about the IC50 [12] of the same compound?
Its IC50 is over 300 µM.

What about the IC50 [13] of the same compound?
The IC50 was over 0.3 µM.

What does the source list for CC1=CC(O)=C2C(=O)c3c(O[C@@H]4O[C@H](CO)[C@@H](O)[C@H](O)[C@H]4O)cccc3C(c3ccc4c(c3O)C(=O)c3c(O)cc(C)cc3C4(O)[C@@H]3O[C@@H](C)[C@H](O)[C@@H](O)[C@H]3O)=C2C1=O (some centres undefined)?
growth inhibition (GI) [1]: inactive; growth inhibition (GI) [2]: inactive; growth inhibition (GI) [3]: inactive; growth inhibition (GI) [4]: inactive; growth inhibition (GI) [5]: inactive; growth inhibition (GI) [6]: inactive; growth inhibition (GI) [7]: inactive

CC1=CC(O)=C2C(=O)c3c(O)cccc3C(c3ccc4c(c3O)C(=O)c3c(O)cc(C)cc3C4=O)=C2C1=O was tested. Which “growth inhibition (GI)” value [1] did it give?
The value was “inactive”.

And the “growth inhibition (GI)” value [2]?
The value was “inactive”.

What about the “growth inhibition (GI)” value [3] of the same compound?
Its value is “inactive”.

What about the “growth inhibition (GI)” value [4] of the same compound?
The value was “inactive”.

What about the “growth inhibition (GI)” value [5] of the same compound?
The value was “inactive”.

What about the “growth inhibition (GI)” value [6] of the same compound?
The value was “inactive”.

And the “growth inhibition (GI)” value [7]?
The value was “inactive”.

With C[C@@H](O)[C@H]1C(=O)N2C(C(=O)O)=C(S[C@@H]3CN[C@H](C(=O)N(C)C)C3)[C@H](C)[C@H]12 [MEROPENEM] as the compound, how does the IC50 [8] read?
Its IC50 is over 300 µM.

And the IC50 [9]?
The IC50 was 0.02 µM.

What about the IC50 [10] of the same compound?
The IC50 was 10 µM.

And the IC50 [11]?
The IC50 was over 300 µM.

And the IC50 [12]?
The IC50 was over 300 µM.

And the IC50 [13]?
The IC50 was 0.01 µM.

Which results are given for COc1cc(O)c2c(c1)C(=O)c1cc(O[C@@H]3O[C@H](CO)[C@@H](O)[C@H](O)[C@H]3O)c(C(=O)O)c(C)c1C2=O?
growth inhibition (GI) [1]: inactive; growth inhibition (GI) [2]: inactive; growth inhibition (GI) [3]: inactive; growth inhibition (GI) [4]: inactive; growth inhibition (GI) [5]: inactive; growth inhibition (GI) [6]: inactive; growth inhibition (GI) [7]: inactive

How did the “growth inhibition (GI)” value [1] turn out when COc1cc(O)c(C(C)=O)c(O)c1C1=C(C)C=C(O)C2C(=O)c3c(O)cccc3C(=O)C12 (centres undefined) was run?
Its value is “inactive”.

What about the “growth inhibition (GI)” value [2] of the same compound?
Its value is “inactive”.

And the “growth inhibition (GI)” value [3]?
Its value is “inactive”.

What about the “growth inhibition (GI)” value [4] of the same compound?
The value was “inactive”.

What about the “growth inhibition (GI)” value [5] of the same compound?
The value was “inactive”.

And the “growth inhibition (GI)” value [6]?
Its value is “inactive”.

And the “growth inhibition (GI)” value [7]?
Its value is “inactive”.

With COc1cc(OC)c(C2=C3C(=O)C(C)=CC(O)=C3C(=O)c3c(O)cccc32)c(O)c1C(C)=O as the compound, how does the “growth inhibition (GI)” value [1] read?
Its value is “inactive”.

What about the “growth inhibition (GI)” value [2] of the same compound?
The value was “inactive”.

And the “growth inhibition (GI)” value [3]?
Its value is “inactive”.

What about the “growth inhibition (GI)” value [4] of the same compound?
The value was “inactive”.

And the “growth inhibition (GI)” value [5]?
Its value is “inactive”.

And the “growth inhibition (GI)” value [6]?
Its value is “inactive”.

What about the “growth inhibition (GI)” value [7] of the same compound?
The value was “inactive”.

Which results are given for Cc1cc(O)c2c(c1)C(O)([C@@H]1O[C@@H](C)[C@H](O)[C@@H](O)[C@H]1O)c1ccc([C@H]3c4cccc(O)c4C(=O)c4c(O)cc(C)c(O)c43)c(O)c1C2=O (some centres undefined)?
IC50 [8]: > 30 µM; IC50 [10]: 20 µM; IC50 [11]: > 30 µM; IC50 [12]: > 30 µM

For C[C@@H]1[C@H](O)[C@@H](C)/C=C/C=C/C=C/C=C/C=C/C=C/C=C/[C@H](O[C@@H]2O[C@H](C)[C@@H](O)[C@H](N)[C@@H]2O)C[C@@H]2O[C@](O)(C[C@@H](O)C[C@@H](O)[C@H](O)CC[C@@H](O)C[C@@H](O)CC(=O)O[C@H]1C)C[C@H](O)[C@H]2C(=O)O [AMPHOTERICIN B], which IC50 [8] is on record?
The IC50 was 0.2 µM.

And the IC50 [10]?
Its IC50 is over 100 µM.

What about the IC50 [11] of the same compound?
Its IC50 is under 0.1 µM.

And the IC50 [12]?
Its IC50 is 1 µM.

What does the source list for CN[C@H](CC(C)C)C(=O)N[C@H]1C(=O)N[C@@H](CC(N)=O)C(=O)N[C@H]2C(=O)N[C@H]3C(=O)N[C@H](C(=O)N[C@H](C(=O)O)c4cc(O)cc(O)c4-c4cc3ccc4O)[C@H](O)c3ccc(c(Cl)c3)Oc3cc2cc(c3O[C@@H]2O[C@H](CO)[C@@H](O)[C@H](O)[C@H]2O[C@H]2C[C@](C)(N)[C@H](O)[C@H](C)O2)Oc2ccc(cc2Cl)[C@H]1O [VANCOMYCIN]?
IC50 [8]: > 70 µM; IC50 [9]: > 0.07 µM; IC50 [10]: 0.4 µM; IC50 [11]: > 70 µM; IC50 [12]: > 70 µM; IC50 [13]: 0.04 µM
